Measurements reported in US7960567B2, “Compounds and methods useful for treating asthma and allergic inflammation” (Amgen Inc., priority 2007, dated 2011).

Legend:
human CRTH2 = molecular target: T1, human CRTH2 (Homo sapiens, UniProt Q9Y5Y4); experiment: Human CRTH2 binding assay (3H-PGD2 binding, 293(124) cells); conditions: 1 nM 3H-PGD2 and 30 nM unlabeled PGD2, read-out: IC50 observed in CRTH2 binding assay
T1 construct: Full-length human CRTH2 cDNA was generated by polymerase chain reaction (PCR); expressed in transfected cells
T1 sequence (Q9Y5Y4 1-395): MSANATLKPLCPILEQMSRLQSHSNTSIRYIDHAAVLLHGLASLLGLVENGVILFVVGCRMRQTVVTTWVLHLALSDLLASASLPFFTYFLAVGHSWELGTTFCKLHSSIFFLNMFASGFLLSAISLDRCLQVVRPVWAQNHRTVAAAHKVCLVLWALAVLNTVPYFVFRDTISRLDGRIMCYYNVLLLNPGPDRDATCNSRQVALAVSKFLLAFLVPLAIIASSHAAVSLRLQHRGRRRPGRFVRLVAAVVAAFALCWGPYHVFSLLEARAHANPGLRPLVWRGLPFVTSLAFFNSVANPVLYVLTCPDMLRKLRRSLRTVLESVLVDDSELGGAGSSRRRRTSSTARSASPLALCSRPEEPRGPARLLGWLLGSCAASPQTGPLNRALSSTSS
Method: Full-length human CRTH2 cDNA was generated by polymerase chain reaction (PCR) using human genomic DNA as template and subsequently cloned into pcDNA3.1(+) (Invitrogen Corp., Carlsbad, Calif.), generating a CRTH2 expression plasmid pHLT124. The plasmid was transfected into 293 cells, […], using LIPOFECTAMINE™ reagents (Invitrogen Corp., Carlsbad, Calif.). G418 ([…]) was added to the culture 48 h after transfection and cells were maintained under selection for 3 weeks to ensure that all surviving cells stably expressed CRTH2. These cells are labeled as 293(124) hereafter.
^3H-PGD2 binding assay was performed using 293(124) cells. In brief, cells were washed and suspended in RPMI containing 0.5% BSA and 20 mM HEPES. Each assay contained 25,000 cells, appropriate amount of test compound when necessary and a mixture of 1 nM ^3H-PGD2 (Amersham Biosciences, Piscataway, N.J.) and 30 nM of unlabeled PGD2 (Cayman Chemical Co., Ann Arbor, Mich.) in […] final volume. The cell mixture was incubated at room temperature for 2.5 h with shaking and the cells were separated from free ^3H-PGD2 and transferred onto a filter plate using a cell harvester. Radioactivity bound to the cells was measured on a liquid scintillation counter. Nonspecific binding was determined in the presence of […] of unlabeled PGD2.

human DP = molecular target: T2, human DP (Homo sapiens, UniProt Q13258); experiment: Human DP binding assay (3H-PGD2 binding, 293(128) cells); conditions: 2 nM 3H-PGD2 and 0 nM unlabeled PGD2, read-out: IC50 observed in DP binding assay
T2 construct: Full-length human DP cDNA was generated by PCR using human genomic DNA as a template; expressed in transfected cells
T2 sequence (Q13258 1-359): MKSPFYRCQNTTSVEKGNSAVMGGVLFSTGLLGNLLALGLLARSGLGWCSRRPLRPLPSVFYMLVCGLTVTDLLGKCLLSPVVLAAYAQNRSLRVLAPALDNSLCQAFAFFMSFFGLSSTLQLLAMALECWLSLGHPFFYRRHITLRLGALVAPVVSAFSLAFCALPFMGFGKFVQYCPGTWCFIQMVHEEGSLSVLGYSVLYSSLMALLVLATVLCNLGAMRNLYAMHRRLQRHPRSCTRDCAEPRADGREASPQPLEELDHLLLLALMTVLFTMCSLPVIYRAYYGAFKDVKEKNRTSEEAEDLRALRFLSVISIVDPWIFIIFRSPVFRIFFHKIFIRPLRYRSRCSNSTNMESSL
Method: Full-length human DP cDNA was generated by PCR using human genomic DNA as a template and subsequently cloned into pcDNA3.1(+) to generate a DP expression plasmid. The plasmid was transfected into 293 cells to generate a line of cells that have stable overexpression of human DP, termed 293(128) cells, essentially as described above for CRTH2. ^3H-PGD2 binding assays were performed using 293(128) cells as described above for CRTH2 except that each assay contained 350,000 cells, and 2 nM ^3H-PGD2 and 0 nM unlabeled PGD2.

Compound	IC50 (human CRTH2) [nM]	IC50 (human DP) [nM]
COc1cc(CC(=O)O)ccc1Oc1ccc2[nH]c(C)cc2c1NS(=O)(=O)c1ccc(Cl)cc1Cl [Example 1, 2-(4-(4-(2,4-Dichlorophenylsulfonamido)-2-methyl-1H-indol-5-yloxy)-3-methoxyphenyl)acetic acid]	10 to 100	< 10
O=C(O)Cc1ccc(Oc2cc3c(cc2NS(=O)(=O)c2ccc(Cl)cc2)C(=O)NC3=O)c(Cl)c1 [Example 30, 2-(3-Chloro-4-(6-(4-chlorophenylsulfonamido)-1,3-dioxoisoindolin-5-yloxy)phenyl)acetic acid]	100 to 1000	1000 to 15000
